Assay results reported in publication PMC8546421, “Molecular modelling of the FOXO4-TP53 interaction to design senolytic peptides for the elimination of senescent cancer cells” (EBioMedicine, 2021).
“Also recorded” adds a separate entry of the source. Like-named read-outs stand apart in the source and are kept apart here. Where no end group is shown, it is not given here.

What was measured:
[1] = test system: dividing A375 cells; assay: Peptide efficacy in culture (MTS), dividing cells; type: cell-based, human; settings: peptide replenished daily for two days, MTS, best fit polynomial, read-out: IC50^div, concentration to kill 50% of dividing cells
Method: (§1) Cell lines were treated with chemotherapy, doxorubicin (Sigma, Cat. No. 2252) to induce senescence (200 nM for HCT116, 100 nM for B16-F10 and MCF7, 50 nM for SW480 and DLD-1, 40 nM for A375-Luc/iRFP and MCF10a). MCF7 cells were treated with CDK4/6 inhibitor, palbociclib (Selleck Chemicals: S1116) to induce senescence (5 µM). A375 cells were treated with Braf inhibitor, Dabrafenib (Selleck Chemicals: S2807), to induce senescence (10 µM). Peptide efficacy experiments were performed by seeding 10,000 – 20,000 cells in a 96-well plate. The cells were given doxorubicin twice to make the cells senescent. After removal of doxorubicin, the plate was treated with varying concentrations of peptide. The peptide was replenished daily for two days. Cellular proliferation was quantified using the Promega CellTiter 96™ AQueous One Solution Cell Proliferation Assay (MTS) after 2 hours according to the manufacturer's protocol (Promega, G3581). To control for the charge of ES2, ProteoJuice (Millipore Sigma, 71281) was used to deliver ES2 using the manufacturers protocol, except 50 µL of 2 mM ES2 was mixed with 25 µL of ProteoJuice. Varying concentrations of the mixture were administered to A375 cells along with a control of only ProteoJuice.

[2] = molecular target: T1, TP53 (Homo sapiens, UniProt P04637); assay: Bio-layer Interferometry, TP53; type: binding; settings: BLI
T1 construct: purchased Millipore Sigma Aldrich 23-034
Method: (§2) Bio-layer Interferometry (BLI) measurements were performed on a ForteBio Octet RED384 instrument (Molecular Devices) using ForteBio Data Acquisition software 9.0 and ForteBio biosensors (Molecular Devices) according to the manufacturer's instructions. Kinetic assays were carried out at 30°C using settings of Standard Kinetics Acquisition rate (5.0 Hz, averaging by 20) at a sample plate shake speed of 1,000 rpm. Streptavidin sensors (SA) (ForteBio) equilibrated in PBS were mock loaded (no ligand reference sensor) or loaded with 50 nM of N- terminal biotinylated ES2 peptide (New England Peptide, Inc.) with an approximate response of 1 nm. Ligand loaded SA sensors equilibrated in Kinetics buffer (ForteBio) to establish a baseline, were dipped into wells containing 2-fold dilutions of TP53 (Millipore Sigma Aldrich; Cat# 23-034), FOXO4 (OriGene Technologies; Cat# TP760655) or GFP analytes in kinetics buffer, or buffer alone (reference sample). Increasing concentrations of analytes ranging from 6.2 - 200 nM were allowed to associate for 240 secs, followed by 600 sec dissociation step where the TP53/FOXO4-bound sensors were washed with kinetics buffer. Binding curves were analysed using ForteBio Data Analysis HT 10.0 evaluation software. To control for background signal and non-specific binding, raw experimental data were processed by subtracting reference biosensor and reference sample (no ligand). Processed data from at least six different concentrations of analyte binding were globally fit to a 1:1 Langmuir binding model to calculate the association rate constant ka, the dissociation rate constant kd to achieve R^2 > 0.90. Equilibrium dissociation constants KD which defines the strength of the interaction or affinity was calculated as the kinetic dissociation rate constant divided by the kinetic association rate constant.

[3] = molecular target: GFP (Aequorea victoria, UniProt P42212); assay: Bio-layer Interferometry, GFP; type: binding; settings: BLI
Method: as §2, with “Increasing concentrations of analytes ranging from 6.2 - 200 nM were allowed to associate for 240 secs, followed by 600 sec dissociation step where the TP53/FOXO4-bound sensors were washed with kinetics buffer.” left out, “To control for background signal and non-specific binding, raw experimental data were processed by subtracting reference biosensor and reference sample (no ligand). Processed data from at least six different concentrations of analyte binding were globally fit to a 1:1 Langmuir binding model to calculate the association rate constant ka, the dissociation rate constant kd to achieve R^2 > 0.90.” left out

[4] = test system: DLD1 and SW480 cells; assay: ES2 viability (MTS) in TP53 mutant colorectal cancer cell lines; type: cell-based, human; settings: DLD1 (S241F heterozygous), SW480 (R273H, P309S)
Method: as §1

T1 sequence (P04637 whole entry): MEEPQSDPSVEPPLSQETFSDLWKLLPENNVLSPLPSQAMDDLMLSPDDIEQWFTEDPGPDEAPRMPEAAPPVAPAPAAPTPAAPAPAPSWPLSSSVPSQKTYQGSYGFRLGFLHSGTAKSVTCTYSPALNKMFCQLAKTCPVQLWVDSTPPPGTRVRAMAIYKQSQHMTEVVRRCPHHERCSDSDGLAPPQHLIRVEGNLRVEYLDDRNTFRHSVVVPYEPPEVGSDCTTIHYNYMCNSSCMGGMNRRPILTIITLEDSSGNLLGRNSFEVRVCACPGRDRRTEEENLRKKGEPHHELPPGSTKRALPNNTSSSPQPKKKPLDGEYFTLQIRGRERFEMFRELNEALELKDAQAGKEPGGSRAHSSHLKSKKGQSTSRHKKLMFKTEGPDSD

Sequence: PRKGGRRRRAWGRRRRRRRRRRRRRRAPRKRLTLA [ES2]
- IC50 [1]: ~17000 nM
- kon ([2]; 1:1 Langmuir binding model, read-out: association rate ka): 38000 M⁻¹ s⁻¹
- kd ([2]; biotinylated ES2 immobilized on streptavidin sensors, analyte 6.25-200 nM, 30°C, global 1:1 Langmuir fit): 8.7e-05 ± 6.3e-07 s⁻¹
- kon ([2]; biotinylated ES2 immobilized on streptavidin sensors, analyte 6.25-200 nM, 30°C, global 1:1 Langmuir fit, read-out: ka): 38000 M⁻¹ s⁻¹
- Kd ([2]; biotinylated ES2 immobilized on streptavidin sensors, analyte 6.25-200 nM, 30°C, kd/ka): 2.3 ± 0.02 nM
- Kd ([3]; biotinylated ES2 on streptavidin sensors, 30°C, NB – no binding): > 200 nM
- binding of GFP (in words) ([3]; six 2-fold dilutions of GFP starting at 200nM): minimal binding of GFP; also recorded: no binding was detected
- cell death in senescent TP53 mutant cells [4]: effective at inducing cell death in senescent cells
